Reference: paper PMC5843811, “^44Sc for labeling of DOTA- and NODAGA-functionalized peptides: preclinical in vitro and in vivo investigations” (EJNMMI Radiopharmacy and Chemistry, 2016)
Like-named read-outs stand apart in the source and are kept apart here.

How the values were obtained:
[1] = system: U87MG tumor-bearing mice; assay: PET/CT imaging of U87MG tumor-bearing mice; format: in vivo; settings: 3 h after i.v. injection of ~10 MBq (~1 nmol), one or two mice
Procedure: The energy window was set to 150–650 keV. […] All static PET scans lasted for 20 min.

[2] = Biodistribution in U87MG tumor-bearing mice; format: in vivo; settings: female, CD-1 nude (athymic nude), mouse, iv, total radioactivity, i.v. ~5 MBq (~1 nmol), mean ± SD; for tissue to tissue ratio at 0.5 h / tissue uptake at 0.5 h: 30 min p.i.; for tissue to tissue ratio at 2 h / tissue uptake at 2 h: 2 h p.i.; for tissue to tissue ratio at 5 h / tissue uptake at 5 h: 5 h p.i.
Procedure: Female athymic nude mice (CD-1 nude), age 5–6 weeks, were obtained from Charles River Laboratories, Sulzfeld, Germany. U87MG cells and AR42J-cells were suspended in PBS (5 × 10^6 cells in 100 μL) and subcutaneously inoculated on each shoulder. Two to three weeks later, when the tumor reached a size of about 300–500 mm^3, the mice were used for the in vivo studies.
Biodistribution studies were performed with U87MG tumor and AR42J tumor-bearing mice 2 weeks after tumor cell inoculation. ^44Sc- and ^68Ga-labeled peptides (~5 MBq, ~1 nmol per mouse) were intravenously injected in a volume of 100–200 μL. Mice were sacrificed at 30 min, 2 h and 5 h after injection (p.i.) of the ^44Sc-labeled peptides. Mice which were injected with ^68Ga-labeled peptides were sacrificed at 30 min and 2 h p.i. Selected tissues and organs were collected, weighed, and counted for radioactivity using a γ-counter (Wallac Wizard 1480, Perkin Elmer). The results were listed as a percentage of the injected activity per gram of tissue mass (% IA/g), using counts of a defined volume of the original injection solution counted at the same time. The data were analyzed for significance using a two-way ANOVA test (Graph Pad Prism 6 software, version 6.05). A p-value of < 0.05 was considered statistically significant.

[3] = U87MG tumor / blood, n=3, read-out: Tumor-to-blood ratio
[4] = U87MG tumor / kidneys, n=3, read-out: Tumor-to-kidney ratio
[5] = U87MG tumor / liver, n=3, read-out: Tumor-to-liver ratio
[6] = U87MG tumor, n=3, read-out: Biodistribution, U87MG Tumor
[7] = blood, 5 MBq per mouse, n=3, read-out: Biodistribution, Blood
[8] = bone, 5 MBq per mouse, n=3, read-out: Biodistribution, Bone
[9] = brain, 5 MBq per mouse, n=3, read-out: Biodistribution, Brain
[10] = heart, 5 MBq per mouse, n=3, read-out: Biodistribution, Heart
[11] = intestines, 5 MBq per mouse, n=3, read-out: Biodistribution, Intestines
[12] = kidneys, n=3, read-out: Biodistribution, Kidneys
[13] = liver, n=3, read-out: Biodistribution, Liver
[14] = lung, 5 MBq per mouse, n=3, read-out: Biodistribution, Lung
[15] = muscle, 5 MBq per mouse, n=3, read-out: Biodistribution, Muscle
[16] = pancreas, 5 MBq per mouse, n=3, read-out: Biodistribution, pancreas
[17] = skin, 5 MBq per mouse, n=3, read-out: Biodistribution, Skin
[18] = spleen, 5 MBq per mouse, n=3, read-out: Biodistribution, Spleen
[19] = stomach, 5 MBq per mouse, n=3, read-out: Biodistribution, Stomach

## N=C(N)NCCC[C@@H]1NC(=O)[C@H](CCCCNC(=O)CN2CCN(CC(=O)O)CCN(CC(=O)O)CCN(CC(=O)O)CC2)NC(=O)[C@@H](Cc2ccccc2)NC(=O)[C@H](CC(=O)O)NC(=O)CNC1=O [^44Sc-DOTA-RGD, metal not drawn]
[1]
  PET/CT distribution of radioactivity (in words): clearly less accumulation of radioactivity in the liver than ^68Ga-DOTA-RGD
[2]; [3]
  tissue to tissue ratio at 0.5 h: 4.82 ± 1.6
  tissue to tissue ratio at 2 h: 40.1 ± 15.6
  tissue to tissue ratio at 5 h: 47.2 ± 18
[2]; [4]
  tissue to tissue ratio at 0.5 h: 1.16 ± 0.29
  tissue to tissue ratio at 2 h: 1.77 ± 0.13
  tissue to tissue ratio at 5 h: 1.82 ± 0.21
[2]; [5]
  tissue to tissue ratio at 0.5 h: 0.99 ± 0.14
  tissue to tissue ratio at 2 h: 0.61 ± 0.04
  tissue to tissue ratio at 5 h: 2.9 ± 0.38
[2]; [6]
  tissue uptake at 0.5 h: 4.88 ± 0.67 %ID/g
  tissue uptake at 2 h: 2.99 ± 0.16 %ID/g
  tissue uptake at 5 h: 3 ± 0.38 %ID/g
[2]; [7]
  tissue uptake at 0.5 h: 1.1 ± 0.29 %ID/g
  tissue uptake at 2 h: 0.08 ± 0.03 %ID/g
  tissue uptake at 5 h: 0.07 ± 0.03 %ID/g
[2]; [8]
  tissue uptake at 0.5 h: 1.17 ± 0.07 %ID/g
  tissue uptake at 2 h: 0.56 ± 0.03 %ID/g
  tissue uptake at 5 h: 0.52 ± 0.11 %ID/g
[2]; [9]
  tissue uptake at 0.5 h: 0.12 ± 0.05 %ID/g
  tissue uptake at 2 h: 0.06 ± 0.01 %ID/g
  tissue uptake at 5 h: 0.06 ± 0.01 %ID/g
[2]; [10]
  tissue uptake at 0.5 h: 0.96 ± 0.3 %ID/g
  tissue uptake at 2 h: 0.31 ± 0.04 %ID/g
  tissue uptake at 5 h: 0.3 ± 0.06 %ID/g
[2]; [11]
  tissue uptake at 0.5 h: 1.88 ± 0.18 %ID/g
  tissue uptake at 2 h: 1.01 ± 0.04 %ID/g
  tissue uptake at 5 h: 1.07 ± 0.04 %ID/g
[2]; kidneys, 5 MBq per mouse, n=3, read-out: Biodistribution, Kidneys
  tissue uptake at 2 h: 1.69 ± 0.09 %ID/g
[2]; [12]
  tissue uptake at 0.5 h: 4.44 ± 0.51 %ID/g
  tissue uptake at 5 h: < 2 %ID/g
[2]; [13]
  tissue uptake at 0.5 h: 5.16 ± 0.99 %ID/g
  tissue uptake at 2 h: 4.9 ± 0.13 %ID/g
  tissue uptake at 5 h: ~1 %ID/g
[2]; [14]
  tissue uptake at 0.5 h: 2.17 ± 0.7 %ID/g
  tissue uptake at 2 h: 0.72 ± 0.11 %ID/g
  tissue uptake at 5 h: 0.52 ± 0.04 %ID/g
[2]; [15]
  tissue uptake at 0.5 h: 0.66 ± 0.26 %ID/g
  tissue uptake at 5 h: 0.28 ± 0.04 %ID/g
[2]; [16]
  tissue uptake at 2 h: 0.35 ± 0.03 %ID/g
  tissue uptake at 5 h: 0.39 ± 0.02 %ID/g
[2]; pancreas, n=3, read-out: Biodistribution, pancreas
  tissue uptake at 0.5 h: 0.94 ± 0.49 %ID/g
[2]; [17]
  tissue uptake at 0.5 h: 2.28 ± 0.39 %ID/g
  tissue uptake at 2 h: 1.23 ± 0.2 %ID/g
  tissue uptake at 5 h: 0.97 ± 0.06 %ID/g
[2]; [18]
  tissue uptake at 0.5 h: 3.66 ± 0.87 %ID/g
  tissue uptake at 2 h: 2.82 ± 0.28 %ID/g
  tissue uptake at 5 h: 1.06 ± 0.18 %ID/g
[2]; [19]
  tissue uptake at 0.5 h: 1.78 ± 0.23 %ID/g
  tissue uptake at 2 h: 0.84 ± 0.19 %ID/g
  tissue uptake at 5 h: 0.72 ± 0.07 %ID/g
